We go through one compound from patent publication US20110217293A1, “Uses of morelloflavone” (priority 2008, published 2011).

Entries after “also recorded” stand apart in the source; their conditions may differ.

For one series, the system named is Ldlr−/−Apobec1−/− mice. Kind of series: Immunohistochemical and TUNEL analysis of atherosclerotic lesions. It is filed as in vivo, mouse. Conditions: aortic root, 8 months diet. The text has this: For the cross sectional analyses of atherosclerosis, the roots of the ascending aortae were embedded in OCT compound (Tissue-Tek®, Sakura-Fineteck U.S.A., Torrance, Calif.). The 5-μm cryostat sections were obtained at the levels of aortic valve leaflets and subjected to hematoxylin and eosin (H&E), TUNEL, and other immunohistochemical staining as described below. In both methods of atherosclerosis quantification, the images of aortae were digitally captured and stored in the TIFF format, using the ScanScope slide scanning system (Nikon, Melville, N.Y.). The quantification of the atherosclerotic area was performed by Image J software (NIH, Bethesda, Md.) and expressed at lesion areas (μm^2).
In order to identify within the intima vascular smooth muscle cells, macrophages, and proliferating cells, the tissue was stained using anti-smooth muscle cell alpha-actin (SMA) (catalog no. ab5694, Abcam, Cambridge, Mass.), anti-macrophage surface glycoproteins (F4/80, catalog no. ab6640, Abcam), and anti-Ki67 (Clone TEC-3, DAKO, Carpinteria, Calif.) antibodies, respectively, as described previously. Values are expressed as means±SD. Comparisons of parameters between two groups were made with the two-tailed Student's t test. When appropriate, ANOVA was performed to compare multiple groups. A value of P<0.05 was considered statistically significant.

Series [1] concerns focal adhesion kinase (FAK). Kind of series: Western blot, phosphorylation of FAK. The class given is cell-based, mouse. To be noted: low concentrations (0.1 & 1 mM), 5 min. How it is done: For the evaluation of phosphorylated FAK and c-Src, Western blot analyses were performed as described (15). Briefly, vascular smooth muscle cells were seeded on 10-cm dishes, treated with various concentrations of morelloflavone for 5 min, and harvested into RIPA buffer with protease inhibitor cocktails. Cleared cell lysates ([…] of protein) were incubated with anti-FAK or anti-c-Src antibodies at 4° C. for 1 hr in a final volume of 1 mL RIPA buffer, and incubated for another 1 hr with protein A/G agarose beads (Santa Cruz; SCBT sc-2003). Immunoprecipitated proteins were eluted into SDS-loading 7 buffer and subjected to 12% SDS-PAGE and immunoblotting using anti-FAK (Santa Cruz; A-17; sc-557) and anti-c-Src (Santa Cruz; SRC-2; sc-18) antibodies for total FAK and c-Src, respectively, and anti-phosphotyrosine antibody (Santa Cruz; PY-20; sc-508) for phosphorylated FAK and c-Src. Densitometric analyses were performed using Adobe Photoshop (Adobe Systems Incorporated, San Jose, Calif.).

Series [2] can be described thus: Body weight in carotid artery injury study. Conditions: apoE−/− mice. The class given is in vivo, mouse. How it is done: The carotid artery injury assay was performed as described by Kuhel (16). Male apoE−/− mice were obtained from Jackson Laboratory (Bar Harbor, Me.) and maintained on a 12 hour light/dark cycle. All animal experimentation protocols were performed under institutional guidelines of animal welfare, in accordance with NIH guidelines. Mice were fed either normal rodent chow diet (5001, LabDiet) (n=10) or normal chow diet containing 0.15% morelloflavone (w/w) (n=9). This diet corresponded to 200 mg/kg morelloflavone if a 30 gm mouse consumes 4 grams of chow. Mice were placed on these diets for 7 days before they underwent carotid artery denudation by the insertion of an epoxy resin (Epon) probe as described (16).

Series [3] relates to vascular smooth muscle cells. Kind of series: Cell attachment. It is filed as cell-based.
A further series has as its system Rac1. Put plainly: GTPase activation assay, Rac1. The class given is cell-based, mouse. Conditions: up to 10 mM. How it is done: To assess the phosphorlyation status of ERK, […] of whole cell lysates was loaded onto SDS-PAGE, and Western blot analysis was done using anti-p-ERK (Santa Cruz; E-4; sc-7383) and anti-ERK (Santa Cruz; K-23; sc-94) antibodies. To detect active RhoA, Rac1 and Cdc42, generated GST-tagged RhoA binding domain of Rhotekin protein (GST-Rhotekin-RBD) and GST-tagged p21-binding domain of p21-activated kinase 1 (PAK1)(GST-PAK1-PBD) were first generated. Briefly, E. coli BL21 cells transformed with pGEX4T-PAK1-PBD or pGEX4T-Rh,otekin-RBD were grown at 37° C. and expression of recombinant protein was induced by addition of 0.1 mM IPTG for 3 hours. Cells were resuspended in lysis buffer (50 mM Tris-HCl, pH 8.0, 10% glycerol, 20% sucrose, 2 mM DTT, 1 mg/ml leupeptin, 1 mg/ml pepstatin, and 1 mg/ml aprotinin), sonicated, and centrifuged at 4° C. for 30 min at 45,000 g. The supernatant was incubated with glutathione sepharose 4B beads (GE-Amersham, Piscataway, N.J.) for 1 hour at 4° C., and then washed 3 times in lysis buffer. Using these GST-proteins, GTPase activation assays were performed as described. […]

Consider `O=C1c2c(O)cc(O)cc2O[C@H](c2ccc(O)cc2)[C@H]1c1c(O)cc(O)c2c(=O)cc(-c3ccc(O)c(O)c3)oc12` [morelloflavone, 5,7, 4′, 5″, 7″, 3″, 4″-heptahydroxy-[3,8″]-flavonylflavanone], for which, in the series on Ldlr−/−Apobec1−/− mice, the “Ki-67-positive cells in atherosclerotic lesions” value is 0.0011±0.0003 cells/μm^2, the “Ki-67 index in atherosclerotic lesions” value is given as 1.6±0.5%, the “SMA-positive cells (SMA index) in atherosclerotic lesions” value is 0.0026±0.0007 cells/μm^2 and the “SMA-positive cells (VSMCs) in atherosclerotic lesions” value is 15.4±3.5 cells/section. Also, in the series on Ldlr−/−Apobec1−/− mice, the “TUNEL index in atherosclerotic lesions” value is reported as 0.4±0.2%, the “TUNEL-positive cells in atherosclerotic lesions” value stood at 0.00025±0.00008 cells/μm^2, the “macrophages (F4/80-positive cells) in the lesions” value was found to be 32.3±8.0 cells/section and the “macrophages (F4/80 index) in the lesions” value turned out to be 0.0042±0.0018 cells/μm^2. Also, in the series with Ldlr−/−Apobec1−/− mice, the “reduction of SMA-positive cells per section vs control” value amounted to 43% and the “reduction of SMA-positive cells per μm^2 vs control” value stood at 32%. Besides, the “phosphorylation of FAK” value in series [1] is reported as “inhibited; also recorded: robustly decreased phosphorylation; also recorded: blocks”. Also, in series [2] (at the time of sacrifice), the Body weight amounted to 23.3 ± 1.5 g. The compound also returned a Body weight in series [2] (before injury) of 24.0 ± 2.0 g. Moreover, the “effect on cell attachment” value in series [3] is recorded as “does not affect cell attachment”. Also, in the series on Rac1, the “activation of Rac1” value was “no significant effect; also recorded: without affecting”.
